Results reported in paper PMC3758437 (Kidney international, 2013).
Counter-ions that a name gives are not always drawn. Like-named read-outs stand apart in the source and are kept apart here.

Columns and labels:
plasma proteins [1] = format: in vitro ADME; conditions: human, plasma (ultrafiltration)
[2] = normal subjects; LC/MS/MS assay; mean±sd
plasma proteins [3] = assay: Free fraction by stable isotope dilution LC/MS/MS assay; conditions: human, plasma (ultrafiltration)

Row | SMILES | fraction unbound (plasma proteins [1]) | Plasma Free Concentration [2] | fraction unbound (plasma proteins [3])
1 | Cn1c(=O)c2c([nH]c(=O)n2C)n(C)c1=O [1,3,7-Trimethyluric acid] | 0.09 ± 0.03 |  | 
2 | Cn1c(=O)[nH]c2[nH]c(=O)n(C)c2c1=O [1,7-Dimethyluric acid] | 0.39 ± 0.3 |  | 
3 | O=C(O)CNC(=O)c1ccco1 [2-Furoylglycine] | 0.49 |  | 
4 | O=C(O)CCCCC(=O)O [Adipic acid] | 0.04 ± 0.01 |  | 
5 | CN1CC(=O)NC1=N [Creatinine] |  | 74 ± 13 µM | 
6 | O=C(O)CNC(=O)c1ccccc1 [Hippurate] | 0.27 ± 0.05 | 1.5 ± 0.9 µM | 0.41 ± 0.02
7 | O=S(=O)(O)Oc1c[nH]c2ccccc12 [Indoxyl sulfate] | 0.02 ± 0.01 | 0.13 ± 0.05 µM | 0.027 ± 0.004
8 | CC(CC(=O)O)C(=O)O (stereo not drawn) [Methylsuccinic acid] | 0.11 ± 0.04 |  | 
9 | O=C(O)CCCCCCC(=O)O [Suberic acid] | 0.07 ± 0.02 |  | 
10 | NC(N)=O [Urea] |  | 2.4 ± 0.6×10^3 μM | 
11 | Cc1ccc(OS(=O)(=O)O)cc1 [p-Cresol sulfate] |  | 0.46 ± 0.26 µM | 
